Test results from patent US20250034135A1, “ANTI-APOPTOTIC PROTEIN BCL-2 INHIBITOR, PHARMACEUTICAL COMPOSITION AND USES THEREOF” (HANGZHOU HEALZEN THERAPEUTICS CO., LTD., priority 2021, published 2025).

What follows are compounds tested against BCL2 (Homo sapiens (Human), UniProt P10415) (assay: Molecular level activity test of anti-apoptotic protein BCL2 (HTRF, binding to Bim peptide)). Conditions: HTRF, binding of BCL2 to Bim peptide; read-out: BCL2 nM (inhibitory activity, IC50).
Summary of the method: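 Compound (2% DMSO) was mixed with His-tagged recombinant BCL2 and biotinylated Bim peptide for 1 h. Detection used anti-His antibody plus streptavidin-XL665 for 4 h at room temperature, read by time-resolved fluorescence.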

BCL2, sequence (P10415 whole entry): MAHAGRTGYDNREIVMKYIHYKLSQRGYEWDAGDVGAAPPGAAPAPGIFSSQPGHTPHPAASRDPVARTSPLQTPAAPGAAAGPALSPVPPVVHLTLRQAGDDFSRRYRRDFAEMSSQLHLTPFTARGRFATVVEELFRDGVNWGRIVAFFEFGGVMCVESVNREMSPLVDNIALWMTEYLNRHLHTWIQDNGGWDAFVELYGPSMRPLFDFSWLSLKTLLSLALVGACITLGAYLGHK

IC50, < 10 nM:
COc1ccc(CN2CCN(C3CC4(CCN(c5cc(Oc6cnc7[nH]ccc7c6)c(C(=O)NS(=O)(=O)c6cc([N+](=O)[O-])c(NCC7(F)CCOCC7)c7ocnc67)cn5)CC4)C3)[C@H](c3ccccc3C(C)C)C2)cc1 [compound 133, (R)-4-((1H-pyrrolo[2,3-b]pyridine-5-yl)oxy)-N-((7-(((4-fluorotetrahydro-2H-pyran-4-yl)methyl)amino)-6-nitrobenzo[d]oxazol-4-yl)sulfonyl)-6-(2-(2-(2-isopropylphenyl)-4-(4-methoxybenzyl)piperazin-1-yl)-7-azaspiro[3.5]non-7-yl) nicotinamide]
COc1ccc(CN2CCN(C3CC4(CCN(c5cc(Oc6cnc7[nH]ccc7c6)c(C(=O)NS(=O)(=O)c6cc([N+](=O)[O-])c(NCC7(F)CCOCC7)c7scnc67)cn5)CC4)C3)[C@H](c3ccccc3C(C)C)C2)cc1 [compound 134, (R)-4-((1H-pyrrolo[2,3-b]pyridine-5-yl)oxy)-N-((7-(((4-fluorotetrahydro-2H-pyran-4-yl)methyl)amino)-6-nitrobenzo[d]thiazol-4-yl)sulfonyl)-6-(2-(2-(2-isopropylphenyl)-4-(4-methoxybenzyl)piperazin-1-yl)-7-azaspiro[3.5]non-7-yl) nicotinamide]
COc1ccc(CN2CCN(C3CC4(CCN(c5cc(Oc6cnc7[nH]ccc7c6)c(C(=O)NS(=O)(=O)c6cc([N+](=O)[O-])c(NCC7(F)CCOCC7)c7occc67)cn5)CC4)C3)[C@H](c3ccccc3C(C)C)C2)cc1 [compound 135, (R)-4-((1H-pyrrolo[2,3-b]pyrid-5-yl)oxy)-N-((7-(((4-fluorotetrahydro-2H-pyran-4-yl)methyl)amino)-6-nitrobenzofuran-4-yl)sulfonyl)-6-(2-(2-(2-isopropylphenyl)-4-(4-methoxybenzyl)piperazin-1-yl)-7-azaspiro[3.5]non-7-yl) nicotinamide]
COc1ccc(CN2CCN(C3CC4(CCN(c5cc(Oc6cnc7[nH]ccc7c6)c(C(=O)NS(=O)(=O)c6cc([N+](=O)[O-])c(NCC7(F)CCOCC7)c7c6OCCO7)cn5)CC4)C3)[C@H](c3ccccc3C(C)C)C2)cc1 [compound 136, (R)-4-((1H-pyrrolo[2,3-b]pyrid-5-yl)oxy)-N-((8-(((4-fluorotetrahydro-2H-pyran-4-yl)methyl)amino)-7-nitro-2,3-dihydrobenzo[b][1,4]dioxan-5-yl)sulfonyl)-6-(2-(2-(2-isopropylphenyl)-4-(4-methoxybenzyl)piperazin-1-yl)-7-azaspiro[3.5]non-7-yl) nicotinamide]
COc1ccc(CN2CCN(C3CC4(CCN(c5cc(Oc6cnc7[nH]ccc7c6)c(C(=O)NS(=O)(=O)c6cc([N+](=O)[O-])c(NC[C@H]7CC[C@](C)(O)CC7)c7c6OCO7)cn5)CC4)C3)[C@H](c3ccccc3C(C)C)C2)cc1 [compound 137, 4-((1H-pyrrolo[2,3-b]pyrid-5-yl)oxy)-N-((7-((((1r, 4r)-4-hydroxy-4-methylcyclohexyl)methyl)amino)-6-nitrobenzo[d][1,3]dioxocyclopent-4-yl)sulfonyl)-6-(2-((R)-2-(2-isopropylphenyl)-4-(4-methoxybenzyl)piperazin-1-yl)-7-azaspiro[3.5]non-7-yl) nicotinamide]
COc1ccc(CN2CCN(C3CC4(CCN(c5cc(Oc6cnc7[nH]ccc7c6)c(C(=O)NS(=O)(=O)c6cc([N+](=O)[O-])c(NC[C@H]7CC[C@](C)(O)CC7)c7ocnc67)cn5)CC4)C3)[C@H](c3ccccc3C(C)C)C2)cc1 [compound 138, 4-((1H-pyrrolo[2,3-b]pyrid-5-yl)oxy)-N-((7-((((1r, 4r)-4-hydroxy-4-methylcyclohexyl)methyl)amino)-6-nitrobenzo[d]oxazol-4-yl)sulfonyl)-6-(2-((R)-2-(2-isopropylphenyl)-4-(4-methoxybenzyl)piperazin-1-yl)-7-azaspiro[3.5]non-7-yl) nicotinamide]
COc1ccc(CN2CCN(C3CC4(CCN(c5cc(Oc6cnc7[nH]ccc7c6)c(C(=O)NS(=O)(=O)c6cc([N+](=O)[O-])c(NC[C@H]7CC[C@](C)(O)CC7)c7occc67)cn5)CC4)C3)[C@H](c3ccccc3C(C)C)C2)cc1 [compound 139, 4-((1H-pyrrolo[2,3-b]pyrid-5-yl)oxy)-N-((7-((((1r, 4r)-4-hydroxy-4-methylcyclohexyl)methyl)amino)-6-nitrobenzofuran-4-yl)sulfonyl)-6-(2-((R)-2-(2-isopropylphenyl)-4-(4-methoxybenzyl)piperazin-1-yl)-7-azaspiro[3.5]non-7-yl) nicotinamide]
COc1ccc(CN2CCN(C3CC4(CCN(c5cc(Oc6cnc7[nH]ccc7c6)c(C(=O)NS(=O)(=O)c6cc([N+](=O)[O-])c(NC[C@H]7CC[C@](C)(O)CC7)c7scnc67)cn5)CC4)C3)[C@H](c3ccccc3C(C)C)C2)cc1 [compound 140, 4-((1H-pyrrolo[2,3-b]pyrid-5-yl)oxy)-N-((7-((((1r, 4r)-4-hydroxy-4-methylcyclohexyl)methyl)amino)-6-nitrobenzo[d]thiazol-4-yl)sulfonyl)-6-(2-((R)-2-(2-isopropylphenyl)-4-(4-methoxybenzyl)piperazin-1-yl)-7-azaspiro[3.5]non-7-yl) nicotinamide]
COc1ccc(CN2CCN(C3CC4(CCN(c5cc(Oc6cnc7[nH]ccc7c6)c(C(=O)NS(=O)(=O)c6cc([N+](=O)[O-])c(NCC7(F)CCOCC7)c7n[nH]c(=O)cc67)cc5F)CC4)C3)[C@H](c3ccccc3C(C)C)C2)cc1 [compound 141, (R)-2-((1H-pyrrolo[2,3-b]pyrid-5-yl)oxy)-5-fluoro-N-((8-(((4-fluorotetrahydro-2H-pyran-4-yl)methyl)amino)-7-nitro-3-oxo-2,3-misoline-5-yl)sulfonyl)-4-(2-(2-(2-isopropylphenyl)-4-(4-methoxybenzyl)piperazin-1-yl)-7-azaspiro[3.5]non-7-yl)benzamide]
COc1ccc(CN2CCN(C3CC4(CCN(c5cc(Oc6cnc7[nH]ccc7c6)c(C(=O)NS(=O)(=O)c6cc([N+](=O)[O-])c(NCC7(F)CCOCC7)c7c6OCC7)cc5F)CC4)C3)[C@H](c3ccccc3C(C)C)C2)cc1 [compound 142, (R)-2-((1H-pyrrolo[2,3-b]pyrid-5-yl)oxy)-5-fluoro-N-((4-(((4-fluorotetrahydro-2H-pyran-4-yl)methyl)amino)-5-nitro-2,3-dihydrobenzofuran-7-yl)sulfonyl)-4-(2-(2-(2-isopropylphenyl)-4-(4-methoxybenzyl)piperazin-1-yl)-7-azaspiro[3.5]non-7-yl)benzamide]
COc1ccc(CN2CCN(C3CC4(CCN(c5cc(Oc6cnc7[nH]ccc7c6)c(C(=O)NS(=O)(=O)c6cc([N+](=O)[O-])c(NCC7(F)CCOCC7)c7ccoc67)cc5F)CC4)C3)[C@H](c3ccccc3C(C)C)C2)cc1 [compound 143, (R)-2-((1H-pyrrolo[2,3-b]pyrid-5-yl)oxy)-5-fluoro-N-((4-(((4-fluorotetrahydro-2H-pyran-4-yl)methyl)amino)-5-nitrobenzofuran-7-yl)sulfonyl)-4-(2-(2-(2-isopropylphenyl)-4-(4-methoxybenzyl)piperazin-1-yl)-7-azaspiro[3.5]non-7-yl)benzamide]
COc1ccc(CN2CCN(C3CC4(CCN(c5ccc(C(=O)NS(=O)(=O)c6cc([N+](=O)[O-])c(NCC7(F)CCOCC7)c7c6OCO7)c(Oc6cnc7[nH]ccc7c6)c5)CC4)C3)[C@H](c3ccccc3C(C)C)C2)cc1 [compound 147, (R)-2-((1H-pyrrolo[2,3-b]pyrid-5-yl)oxy)-N-((7-(((4-fluorotetrahydro-2H-pyran-4-yl)methyl)amino)-6-nitrobenzo[d][1,3]dioxocyclopent-4-yl)sulfonyl)-4-(2-(2-(2-isopropylphenyl)-4-(4-methoxybenzyl)piperazin-1-yl)-7-azaspiro[3.5]non-7-yl)benzamide]
COc1ccc(CN2CCN(C3CC4(CCN(c5ccc(C(=O)NS(=O)(=O)c6cc([N+](=O)[O-])c(NC[C@H]7COCCO7)c7c6OCO7)c(Oc6cnc7[nH]ccc7c6)c5)CC4)C3)[C@H](c3ccccc3C(C)C)C2)cc1 [compound 148, N-((7-((((S)-1,4-dioxan-2-yl)methyl)amino)-6-nitrobenzo[d][1,3]dioxocyclopent-4-yl)sulfonyl)-2-((1H-pyrrolo[2,3-b]pyrid-5-yl)oxy)-4-(2-((R)-2-(2-isopropylphenyl)-4-(4-methoxybenzyl)piperazin-1-yl)-7-azaspiro[3.5]non-7-yl)benzamide]
COc1ccc(CN2CCN(C3CC4(CCN(c5cc(Oc6cnc7[nH]ccc7c6)c(C(=O)NS(=O)(=O)c6cc([N+](=O)[O-])c(NC[C@H]7COCCO7)c7c6OCO7)cn5)CC4)C3)[C@H](c3ccccc3C(C)C)C2)cc1 [compound 151, N-((7-((((S)-1,4-dioxan-2-yl)methyl)amino)-6-nitrobenzo[d][1,3]dioxocyclopent-4-yl)sulfonyl)-4-((1H-pyrrolo[2,3-b]pyrid-5-yl)ox)-6-(2-((R)-2-(2-isopropylphenyl)-4-(4-methoxybenzyl)piperazin-1-yl)-7-azaspiro[3.5]non-7-yl) nicotinamide]
COc1ccc(CN2CCN(C3CC4(CCN(c5cc(Oc6cnc7[nH]ccc7c6)c(C(=O)NS(=O)(=O)c6ccc(NCC7(F)CCOCC7)c([N+](=O)[O-])c6)cc5F)CC4)C3)[C@@H](c3ccccc3C(C)C)C2)cc1 [compound 153, (S)-2-((1H-pyrrolo[2,3-b]pyrid-5-yl)oxy)-5-fluoro-N-((4-(((4-fluorotetrahydro-2H-pyran-4-yl)methyl)amino)-3-nitrophenyl)sulfonyl)-4-(2-(2-(2-isopropylphenyl)-4-(4-methoxybenzyl)piperazin-1-yl)-7-azaspiro[3.5]non-7-yl)benzamide]
